Assay type in all cases: in vivo
Assay [1] deals with Complement component 1, q subcomponent, gamma polypeptide, C1qg. The experiment in a line: Cerebral cortex gene expression: C1qg. As to conditions: mouse cerebral cortex; diet 1 ppm Se, 100 days; vs selenium deficient; * = significant, p<0.01. The source says: (§1) Animal Care. Male C57BL/6J mice were housed singly and started on the experimental diets described below immediately after weaning (21 days of age). The mice were maintained in the Shared Aging Rodent Facility at the William S. Middleton Memorial Veterans Administration Medical Center (Madison, Wis.). Temperature and humidity were maintained at constant levels. Room light was controlled to provide 12-hr cycles of light and dark.
(§2) Experimental diets were created by Harlan Teklad (Madison, Wis.). Selenium content of the diets was determined by Covance Inc. (Madison, Wis.). Five (5) animals were included in each of the following treatment groups: a diet deficient in selenium (SD); a diet supplemented with selenomethionine (SM, obtained from Sigma, St. Louis, Mo.) such that the final selenium content of the diet was one (1) part per million; a diet supplemented with sodium selenite (SS, Sigma) such that the final concentration of selenium in this diet was one (1) part per million; or a diet supplemented with the yeast selenium SEL-PLEX (SP, Alltech, Lexington, Ky), such that the final concentration of selenium in this diet was one (1) part per million. SEL-PLEX. […]
(§3) Tissue sample preparation and microarray analysis. […] For intestinal expression studies, the intestine was flushed twice with saline solution and small intestine was measured and divided in three equal segments. […]

Assay [2] concerns SelR (also known as Selenoprotein X1). The experiment in a line: Intestinal gene expression: SelR. As to conditions: mouse intestine; diet 1 ppm Se, 100 days; vs selenium deficient.
Excerpt: as §1, §2, §3

The next assay concerns Cathepsin Z. The experiment in a line: Cerebral cortex gene expression: Cathepsin Z. The following applies: mouse cerebral cortex; diet 1 ppm Se, 100 days; * downregulation significant relative to Se-deficient mice.
Excerpt: as §1, §2, §3

The test system of assay [3] is LIM homeobox protein 8 gene (Lhx8). The experiment in a line: Intestinal gene expression: Lhx8. The following applies: mouse intestine; diet 1 ppm Se, 100 days; vs Se-deficient subjects.
Excerpt: as §1, §2, §3

The next assay relates to calpain-5. The assay is described as follows: Expression level of calpain genes after selenium administration. The following applies: signed change (+ up, − down); tissue not stated; * not explained. As to the method:
Compositions and methods of the present invention were analyzed to determine if they were capable of altering the expression levels of calpain genes. Compositions comprising various forms of selenium (e.g., SeM, Sod-sel, and SEL-PLEX) were administered to subjects and the expression levels of calpain genes monitored. The expression level of calpain-5 was altered by treatment in the following ways: free selenomethionine (SM)+1.32*, Sod-sel−1.07, SEL-PLEX−1.44*.

The test system of a further assay is Glutathione Peroxidase 1. The assay is described as follows: Intestinal gene expression (microarray): Glutathione Peroxidase 1. As to conditions: mouse intestine; diet 1 ppm Se, 100 days; vs selenium deficient; all p < 0.01.
Excerpt: as §1, §2, §3

The test system of the next assay is Neurogenin 3 (Neurog3). The experiment in a line: Intestinal gene expression: Neurog3. As to conditions: mouse intestine; diet 1 ppm Se, 100 days; vs selenium deficient.
Excerpt: as §1, §2, §3

The next assay concerns Prohibitin (Phb). The experiment in a line: Intestinal gene expression: Prohibitin. As to conditions: mouse intestine; diet 1 ppm Se, 100 days; vs selenium deficient; p<0.05.
Excerpt: as §1, §2, §3

Assay [4] relates to transforming growth factor beta 2 (TGF-β2). The experiment in a line: Intestinal gene expression: TGF-β2. The following applies: mouse intestine; diet 1 ppm Se, 100 days; compared to controls.
Excerpt: as §1, §2, §3

For another assay, the system named is Cathepsin D. The assay is described as follows: Cerebral cortex gene expression: Cathepsin D. The following applies: mouse cerebral cortex; diet 1 ppm Se, 100 days; * downregulation significant relative to Se-deficient mice.
Excerpt: as §1, §2, §3

The subject of another assay is Glyoxalase 1 (Glo 1). The experiment in a line: Intestinal gene expression: Glo1. The following applies: mouse intestine; diet 1 ppm Se, 100 days; vs selenium deficient.
Excerpt: as §1, §2, §3

Assay [5] has as its system Gadd45g1p (Growth arrest and DNA-damage inducible 45 gamma interacting protein). The experiment in a line: Brain gene expression: Gadd45g1p. The following applies: mouse brain; diet 1 ppm Se, 100 days; * significant relative to Se-deficient animals.
Excerpt: as §1, §2, §3

A further assay deals with CORS-26. The experiment in a line: Cerebral cortex gene expression: CORS-26. As to conditions: mouse cerebral cortex; diet 1 ppm Se, 100 days; vs selenium deficient.
Excerpt: as §1, §2, §3

For assay [6], the system named is Glutathione S-transferase, theta 2 (Gstt2). The experiment in a line: Intestinal gene expression: Gstt2. The following applies: mouse intestine; diet 1 ppm Se, 100 days; vs Se-deficient diets; negative = down; NS = not significant.
Excerpt: as §1, §2, §3

The test system of assay [7] is Glutathione S-transferase, mu2 (Gstm2). The experiment in a line: Intestinal gene expression: Gstm2. The following applies: mouse intestine; diet 1 ppm Se, 100 days; vs Se-deficient diets; negative = down; NS = not significant.
Excerpt: as §1, §2, §3

Assay [8] deals with Glutathione S-transferase, alpha 3 (Gsta3). The experiment in a line: Intestinal gene expression: Gsta3. As to conditions: mouse intestine; diet 1 ppm Se, 100 days; vs Se-deficient diets; negative = down; NS = not significant.
Excerpt: as §1, §2, §3

As to `C[Se]CC[C@H](N)C(=O)O` [SeM, selenomethionine], the “FC C1qg expression” value in [1] was found to be 1.0 fold. The “SelR gene expression, upregulated” value in assay [2] is listed as “not significantly affected”. Also, the “FC Cathepsin Z expression” value in the assay on Cathepsin Z is −1.13 fold. Further, in assay [3], the “Lhx8 expression, upregulated” value is listed as “not significantly different”. For the same molecule, the “expression level of calpain-5 altered by treatment” value in the assay on calpain-5 was “+1.32”. The “fold change (FC) in Glutathione Peroxidase 1 gene expression” value in the assay with Glutathione Peroxidase 1 is 4.9 fold. Moreover, the “Neurog3 expression, upregulated” value in the assay with Neurogenin 3 (Neurog3) is recorded as “no significant alteration”. Further, the “Prohibitin (Phb) expression, upregulated” value with Prohibitin (Phb) came out at 1.6 fold. Further, in assay [4], the “TGF-β2 expression, upregulated” value is reported as “not altered”. The “FC Cathepsin D expression” value in the assay with Cathepsin D is 1.02 fold. In addition, the “Glo1 expression, reduction of expression” value in the assay on Glyoxalase 1 (Glo 1) is reported as “not significantly affected”. In assay [5], the “FC Gadd45g1p expression” value turned out to be 1.02 fold. Besides, in the assay on CORS-26, the “CORS-26 expression, reduction in expression” value is listed as “no alteration”.

Regarding `O=[Se](O)O` [Sod-sel, sodium selenite], the “FC C1qg expression” value in assay [1] was −1.07 fold. In addition, the “FC Gstt2 expression” value in assay [6] is reported as −1.3 fold. Further, the “SelR gene expression, upregulated” value in [2] is recorded as 1.3 fold. The “FC Cathepsin Z expression” value in the assay with Cathepsin Z was −1.30* fold. In addition, in [7], the “FC Gstm2 expression” value is −2.1 fold. Also, the “fold change (FC) in Glutathione Peroxidase 1 gene expression” value with Glutathione Peroxidase 1 is recorded as 4.1 fold. For the same molecule, in [8], the “FC Gsta3 expression” value was −2.3 fold. Further, the “FC Cathepsin D expression” value in the assay on Cathepsin D is listed as −1.24* fold. Moreover, the “FC Gadd45g1p expression” value in [5] was −1.12 fold.

These data come from US20070155687A1, “Methods and compositions for altering cell function” (Alltech, Inc., priority 2005, published 2007).
